Literature values in patent US7709647B2, “Tetrahydroquinoline cannabinoid receptor modulators” (Bristol-Myers Squibb Company, priority 2005, dated 2010).

Tests used:
[1] = chronic administration for two weeks
human subjects = conditions: 16 week trial period, published Phase IIb data

SMILES	body weight [1]	body weight (human subjects)
Cc1c(C(=O)NN2CCCCC2)nn(-c2ccc(Cl)cc2Cl)c1-c1ccc(I)cc1 [AM-251]	substantial body weight reduction	
Cc1c(C(=O)NN2CCCCC2)nn(-c2ccc(Cl)cc2Cl)c1-c1ccc(Cl)cc1 [SR-141716]		dose-dependently reduced body weight
